{"source": "patent US20110172297A1", "about": "“Oxopiperdinyl And Pyranyl Sulfonamides and Pharmaceutical Compositions Thereof” (Pfizer Inc, priority 2008, published 2011)", "data": [{"tested_on": "AMPA receptors", "assay": "AMPA ES cell FLIPR screen (AMPA Potentiator Assay)", "format": "cell-based", "settings": "murine ES cell-derived neurons, FLIPR Fluo-4 calcium signal, 32 uM AMPA challenge; values marked * are the geometric mean of 2-9 EC50 determinations", "procedure": "The murine ES cell line used was E14-Sx1-16C, which has a targeted mutation in the Sox1 gene, a neuroectodermal marker, that offers G418 resistance when the Sox1 gene is expressed (Stem Cell Sciences). ES cells were maintained undifferentiated as previously described (Roach). […] ES cells were plated on gelatin-coated dishes (BD Biosciences), the media was changed daily and the cells were dissociated with 0.05% Trypsin EDTA (Invitrogen) every other day.\nEmbryoid Body Formation: Prior to embryoid body (EB) formation the ES cells were weaned from FBS onto Knockout Serum Replacement (KSR) (Invitrogen). To form EBs, ES cells were dissociated into a single cell suspension, then 3×10^6 cells were plated in bacteriology dishes (Nunc 4014) and grown as a suspension culture in NeuroEB-I medium that consisted of Knockout™ D-MEM (Invitrogen), supplemented with 10% KSR (Invitrogen), 0.2 mM L-Glutamine (Invitrogen), 0.1 mM MEM non-essential amino acids (Invitrogen), 30 μg/ml Gentamicin (Invitrogen), 1000 u/ml ESGRO (Chemicon), 0.1 mM 2-Mercaptoethanl (Sigma) and 150 ng/ml Transferrin (Invitrogen). The plates were put on a Stovall Belly Button shaker in an atmospheric oxygen incubator. The media was changed on day 2 of EB formation with NeuroEB-I and on day 4 with NeuroEB-II (NeuroEB-I plus 1 μg/ml mNoggin [R&D Systems]).\nNeuronal Precursor Selection and Expansion: On day 5 of EB formation, EBs were dissociated with 0.05% Trypsin EDTA, and 4×10^6cells/100 mm dish were plated on Laminin coated tissue culture dishes in Neuroll-G418 medium that consisted of a base medium of a 1:1 mixture of D-MEM/F12 supplemented with N2 supplements and NeuroBasal Medium supplemented with B27 supplement and 0.1 mM L-Glutamine (all from Invitrogen). The base medium was then supplemented with 10 ng/ml bFGF (Invitrogen), 1 μg/ml mNoggin, 500 ng/ml SHH—N, 100 ng/ml FGF-8b (R&D Systems), 1 μg/ml Laminin and 200 μg/ml G418 (Invitrogen) for selection of neuronal precursors expressing Sox-1. The plates were put in an incubator that contained 2% Oxygen and were maintained in these conditions. During the 6-day selection period, the Neuroll media was changed daily. On day 6, the surviving neuronal precursor foci were dissociated with 0.05% Trypsin EDTA and the cells were plated at a density of 1.5×10^6 cells/100 mm Laminin coated dish in Neuroll-G418 medium. The cells were dissociated every other day for expansion, and prepared for Cryopreservation at passage 3 or 4. The crypreservation medium contained 50% KSR, 10% Dimethyl Sulfoxide (DMSO) (Sigma) and 40% Neurol-G418I medium. Neuronal precursors were crypreserved at a concentration of 4×10^6 cells/ml and 1 ml/cryovial in a controlled rate freezer overnight then transferred to an ultra-low freezer or liquid nitrogen for long-term storage.\nNeuronal Differentiation: Cryopreserved ES cell-derived neuronal precursors were thawed by the rapid thaw method in a 37-degree water-bath. The cells were transferred from the cryovial to a 100 mm Laminin coated tissue culture dish that already contained Neuroll-G418 that had been equilibrated in a 2% Oxygen incubator. The media was changed with fresh Neuroll-G418 the next day. The cells were dissociated every other day as described above for expansion to generate enough cells to plate for the screen. For the screen, the cells were plated into 384-well poly-d-lysine coated tissue culture dishes (BD Biosciences) by the automated SelecT at a cell density of 6K cells/well in differentiation medium Neurolll that contained a 4:1 ratio of the NeuroBasalMedium/B27:D-MEM/F12/N2 supplemented with 1 μM cAMP (Sigma), 200 μM Ascorbic Acid (Sigma), 1 μg/ml Laminin (Invitrogen) and 10 ng/ml BDNF (R&D Systems). The plates were put in an incubator with 2% Oxygen and allowed to complete the differentiation process for 7 days. The cells could then be used over a 5-day period for the high throughput screen.\nOn the day of the assay, the FLIPR assay may be performed using the following methods: […]", "units": {"EC50": "µM"}, "values": [{"smiles": "CC(C)S(=O)(=O)N[C@H]1COCC[C@H]1c1ccc(-c2ccc(C#N)cc2)cc1", "note": "[Example 61, N-[(3R,4S)-4-(4′-cyanobiphenyl-4-yl)tetrahydro-2H-pyran-3-yl]propane-2-sulfonamide]", "EC50": "> 31.6"}, {"smiles": "CCOc1ccccc1-c1ccc([C@H]2CCOC[C@H]2NS(=O)(=O)C(C)C)cc1", "note": "[Example 62, N-[(3S,4R)-4-(2′-ethoxybiphenyl-4-yl)tetrahydro-2H-pyran-3-yl]propane-2-sulfonamide]", "EC50": "> 31.6"}, {"smiles": "CCOc1ccccc1-c1ccc([C@@H]2CCOC[C@@H]2NS(=O)(=O)C(C)C)cc1", "note": "[Example 63, N-[(3R,4S)-4-(2′-ethoxybiphenyl-4-yl)tetrahydro-2H-pyran-3-yl]propane-2-sulfonamide]", "EC50": 0.669}]}]}
